As usually defined, the IC50 is the point on the concentration scale where inhibition reaches its midpoint. As usually defined, the Ki is a dissociation constant, usually derived from enzyme kinetics or from competition with a known ligand.

Like-named read-outs stand apart in the source and are kept apart here.

This note sets out measurements from article PMC6010123, “Synthesis of chiral pyrazolo[4,3-e][1,2,4]triazine sulfonamides with tyrosinase and urease inhibitory activity” (Journal of Enzyme Inhibition and Medicinal Chemistry, 2016).

For assay [1], the target named is T1, Jack bean urease (EC 3.5.1.5) (Canavalia ensiformis, UniProt P07374).
T1 construct: purchased Sigma (St. Louis, MO, USA)
Put plainly: biochemical.

The target in assay [2] is T2, Jack bean urease (Canavalia ensiformis, UniProt P07374).
T2 construct: purchased Sigma (St. Louis, MO, USA)
Put plainly: Kinetic study of urease inhibition (Lineweaver-Burk, secondary replot, Dixon plot). The format is biochemical. As for the experimental part: Urease inhibition was measured by varying the concentration of urea in the presence of different concentrations (0, 0.125, 0.25 and 0.5 μM) of compound 8a. Inhibitory constant (Ki) was determined as the intersection on the X-axis of the secondary replot of 1/V (y-intercept of Lineweaver–Burk plot) versus inhibitor concentrations and by Dixon plot of inverse of velocities (1/V) versus inhibitor concentrations. Briefly the urea concentration was changed from 3.12 to 100 mM for urease kinetics studies and remaining procedure was same as describes in urease inhibition assay protocol. Urease activity was determined by measuring ammonia production using the indophenol method as reported previously. The results (change in absorbance per min) were processed by using SoftMaxPro software(Molecular Devices Corporation Sunnyvale, CA) and a Dixon plot was constructed by plotting (1/V) versus inhibitor concentration [I].

Assay [3] addresses mushroom tyrosinase (Agaricus bisporus, UniProt C7FF04). The assay is described as follows: Kinetic study of mushroom tyrosinase inhibition (Lineweaver-Burk, secondary replot, Dixon plot). Format: biochemical. The conditions noted are these: substrate L-DOPA. The protocol: Lineweaver–Burk plots of 1/absorbance versus 1/L-DOPA and 1/absorbance versus 1/Urea were used to determine the type of enzyme inhibition. A series of experiments were performed to determine the inhibition kinetics by following method[18] ^, [28] ^, [29]. Different inhibitor concentrations of compound 8b with 0, 15, 30, 61, 123 and 247 μM, 8j with 0, 14, 28 and 55.8 μM, respectively were used in case of mushroom tyrosinase inhibition. Substrate L-DOPA concentration was between 0.062 and 2 mM in all tyrosinase kinetic study. Pre-incubation and measurement time was the same as discussed in mushroom tyrosinase inhibition assay protocol. Maximal initial velocity was determined from initial linear portion of absorbance up to five minutes after addition of enzyme at a 30 s interval. The inhibition type on the enzyme was assayed by Lineweaver–Burk plots of inverse of velocities (1/V) versus inverse of substrate concentration 1/[S] mM ^− ^1, and the inhibition constant Ki was determined by two methods, by secondary replot of 1/V (y-intercept of Lineweaver–Burk plot) versus inhibitor concentrations and by Dixon plot of inverse of velocities (1/V) versus inhibitor concentrations.

T1 sequence (P07374 whole entry, looked up): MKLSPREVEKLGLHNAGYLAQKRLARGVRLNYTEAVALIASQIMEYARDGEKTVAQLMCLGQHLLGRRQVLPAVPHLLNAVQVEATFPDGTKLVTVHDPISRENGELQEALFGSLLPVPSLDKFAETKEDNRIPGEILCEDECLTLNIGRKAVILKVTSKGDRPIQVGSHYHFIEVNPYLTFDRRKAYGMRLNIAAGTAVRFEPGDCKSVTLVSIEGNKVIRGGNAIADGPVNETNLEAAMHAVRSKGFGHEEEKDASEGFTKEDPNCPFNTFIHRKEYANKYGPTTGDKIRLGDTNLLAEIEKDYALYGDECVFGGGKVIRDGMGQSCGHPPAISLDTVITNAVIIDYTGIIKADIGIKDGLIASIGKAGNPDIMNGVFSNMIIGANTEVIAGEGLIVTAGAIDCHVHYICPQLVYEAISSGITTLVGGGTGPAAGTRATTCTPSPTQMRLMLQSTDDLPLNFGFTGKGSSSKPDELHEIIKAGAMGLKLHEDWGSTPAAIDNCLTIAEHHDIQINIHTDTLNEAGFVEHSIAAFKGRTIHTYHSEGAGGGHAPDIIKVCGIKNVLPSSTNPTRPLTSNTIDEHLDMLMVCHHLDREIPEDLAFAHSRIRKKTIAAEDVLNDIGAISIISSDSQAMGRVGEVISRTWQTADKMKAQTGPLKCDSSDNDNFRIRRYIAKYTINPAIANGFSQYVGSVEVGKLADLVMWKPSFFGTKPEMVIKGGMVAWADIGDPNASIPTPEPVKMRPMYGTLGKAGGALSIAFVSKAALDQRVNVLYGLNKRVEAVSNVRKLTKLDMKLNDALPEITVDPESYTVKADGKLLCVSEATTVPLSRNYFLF
Sequence of mushroom tyrosinase (C7FF04 2-392): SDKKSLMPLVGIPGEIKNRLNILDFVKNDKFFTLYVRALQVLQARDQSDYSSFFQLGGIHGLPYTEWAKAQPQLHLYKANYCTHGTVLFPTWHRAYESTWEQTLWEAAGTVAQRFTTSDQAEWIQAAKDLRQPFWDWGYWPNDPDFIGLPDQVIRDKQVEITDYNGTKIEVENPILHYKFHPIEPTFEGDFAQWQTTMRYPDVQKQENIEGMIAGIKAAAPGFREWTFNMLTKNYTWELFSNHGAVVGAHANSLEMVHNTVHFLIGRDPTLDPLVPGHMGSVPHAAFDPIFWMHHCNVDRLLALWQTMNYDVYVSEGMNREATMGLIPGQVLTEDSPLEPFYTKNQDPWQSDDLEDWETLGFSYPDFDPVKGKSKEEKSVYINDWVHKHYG
T2 sequence (P07374 whole entry, looked up): as the sequence (P07374 whole entry, looked up) above

`CCOc1ccc(S(=O)(=O)N[C@@H](C)CO)cc1-c1nnc2c(n1)c(C)nn2C` [8a, (S)-3-(1,3-dimethyl-1H-pyrazolo[4,3-e][1,2,4]triazin-5-yl)-4-ethoxy-N-(1-hydroxy-propan-2-yl)benzenesulfonamide] had an IC50 in assay [1] of 37 ± 3 nM. The molecule further displayed a Ki in assay [2] of 10 nM. Also, the “Urease type of inhibition” value in assay [2] (Lineweaver-Burk plot, substrate urea) is given as “Mixed type”. Molecule `CCOc1ccc(S(=O)(=O)N[C@H](C)CO)cc1-c1nnc2c(n1)c(C)nn2C` [8b, (R)-3-(1,3-dimethyl-1H-pyrazolo[4,3-e][1,2,4]triazin-5-yl)-4-ethoxy-N-(1-hydroxy-propan-2-yl)benzenesulfonamide] gave an IC50 in assay [1] of 84 ± 20 nM. In assay [3], the “Mushroom tyrosinase type of inhibition” value was “Noncompetitive”. On to `CCOc1ccc(S(=O)(=O)N[C@H](CO)C(C)C)cc1-c1nnc2c(n1)c(C)nn2C` [8c, (S)-3-(1,3-dimethyl-1H-pyrazolo[4,3-e][1,2,4]triazin-5-yl)-4-ethoxy-N-(1-hydroxy-3-methylbutan-2-yl)benzenesulfonamide], for which 78 ± 20 nM corresponded to half-maximal inhibition in assay [1] (IC50). On the same count and under the same terms, to `CCOc1ccc(S(=O)(=O)N[C@@H](CO)C(C)C)cc1-c1nnc2c(n1)c(C)nn2C` [8d, (R)-3-(1,3-dimethyl-1H-pyrazolo[4,3-e][1,2,4]triazin-5-yl)-4-ethoxy-N-(1-hydroxy-3-methylbutan-2-yl)benzenesulfonamide] belongs 64 ± 20 nM. Still for that read-out and setting: to `CCOc1ccc(S(=O)(=O)NC[C@H](C)O)cc1-c1nnc2c(n1)c(C)nn2C` [8e, (S)-3-(1,3-dimethyl-1H-pyrazolo[4,3-e][1,2,4]triazin-5-yl)-4-ethoxy-N-(2-hydroxy-propyl)-benzenesulfonamide] belongs 76 ± 7 nM. Consider `CCOc1ccc(S(=O)(=O)NC[C@@H](C)O)cc1-c1nnc2c(n1)c(C)nn2C` [8f, (R)-3-(1,3-dimethyl-1H-pyrazolo[4,3-e][1,2,4]triazin-5-yl)-4-ethoxy-N-(2-hydroxy-propyl)-benzenesulfonamide], for which the IC50 in assay [1] (read-out: Urease IC50, Jack bean urease, 100 mM urea, pH 8.2, 37 °C) amounted to 44 ± 130 nM. In assay [1], `CCOc1ccc(S(=O)(=O)NC[C@H](O)CO)cc1-c1nnc2c(n1)c(C)nn2C` [8g, (S)-N-(2,3-dihydroxypropyl)-3-(1,3-dimethyl-1H-pyrazolo[4,3-e][1,2,4]triazin-5-yl)-4-ethoxybenzenesulfonamide] showed an IC50 of 63 ± 16 nM. The same measure, in the same setting: in the case of `CCOc1ccc(S(=O)(=O)NC[C@@H](O)CO)cc1-c1nnc2c(n1)c(C)nn2C` [8h, (R)-N-(2,3-dihydroxypropyl)-3-(1,3-dimethyl-1H-pyrazolo[4,3-e][1,2,4]triazin-5-yl)-4-ethoxybenzenesulfonamide] it was 80 ± 14 nM; in that of `CCOc1ccc(S(=O)(=O)N[C@H](CO)CC(C)C)cc1-c1nnc2c(n1)c(C)nn2C` [8i, (S)-3-(1,3-dimethyl-1H-pyrazolo[4,3-e][1,2,4]triazin-5-yl)-4-ethoxy-N-(1-hydroxy-4-methylpentan-2-yl)benzenesulfonamide], 42 ± 12 nM.

In assay [1], `CCOc1ccc(S(=O)(=O)N[C@@H](CO)CC(C)C)cc1-c1nnc2c(n1)c(C)nn2C` [8j, (R)-3-(1,3-dimethyl-1H-pyrazolo[4,3-e][1,2,4]triazin-5-yl)-4-ethoxy-N-(1-hydroxy-4-methylpentan-2-yl)benzenesulfonamide] showed a 50% inhibitory concentration (IC50) of 80 ± 15 nM. Moreover, in assay [3], the “Mushroom tyrosinase type of inhibition” value was “Mixed type”.

On to `NC(N)=S` [Thio-Urea, thiourea, reference compound], for which the IC50 in assay [1] (Jack bean urease, 100 mM urea, pH 8.2, 37 °C, read-out: Urease IC50) stood at 20700 ± 450 nM.
